Measured values: publication PMC12160547, “Identification of a Novel Small Molecule STING Agonist Reshaping the Immunomicroenvironment of Pancreatic Ductal Adenocarcinoma” (International Journal of Biological Sciences, 2025)

How the values were obtained:
m-STING = target: T1, m-STING (Mus musculus, UniProt Q3TBT3); assay: Raw-lucia reporter activation fold; assay type: cell-based
T1 construct: Raw-lucia Fold (50 μM); endogenous in cells; host or cells: RAW-Lucia
T1 sequence (Q3TBT3 1-378): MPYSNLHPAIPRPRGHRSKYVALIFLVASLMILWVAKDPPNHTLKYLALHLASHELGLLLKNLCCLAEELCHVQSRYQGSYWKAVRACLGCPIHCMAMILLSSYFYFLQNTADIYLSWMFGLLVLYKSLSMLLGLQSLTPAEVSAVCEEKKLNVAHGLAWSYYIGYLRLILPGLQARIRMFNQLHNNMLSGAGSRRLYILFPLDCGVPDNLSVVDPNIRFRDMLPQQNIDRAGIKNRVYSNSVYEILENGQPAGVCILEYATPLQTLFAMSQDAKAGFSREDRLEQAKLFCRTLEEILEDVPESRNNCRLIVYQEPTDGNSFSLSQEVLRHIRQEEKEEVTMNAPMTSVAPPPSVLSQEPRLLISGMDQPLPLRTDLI

[1] = Metabolite profiling in liver microsomes, 60 min incubation; assay type: in vitro ADME, rat; conditions: D166 incubated 60 min; selected ion chromatographic peak areas
[2] = as above; assay type: in vitro ADME, dog; conditions: D166 incubated 60 min; selected ion chromatographic peak areas
h-STING = target: T2, h-STING (Homo sapiens, UniProt Q86WV6, G230A/R293Q/R71H); assay: THP1-Dual reporter activation fold; assay type: cell-based
T2 construct: THP1-Dual Fold (10 μM); endogenous in cells; host or cells: THP1-Dual
T2 sequence (Q86WV6 whole entry R71H/G230A/R293Q): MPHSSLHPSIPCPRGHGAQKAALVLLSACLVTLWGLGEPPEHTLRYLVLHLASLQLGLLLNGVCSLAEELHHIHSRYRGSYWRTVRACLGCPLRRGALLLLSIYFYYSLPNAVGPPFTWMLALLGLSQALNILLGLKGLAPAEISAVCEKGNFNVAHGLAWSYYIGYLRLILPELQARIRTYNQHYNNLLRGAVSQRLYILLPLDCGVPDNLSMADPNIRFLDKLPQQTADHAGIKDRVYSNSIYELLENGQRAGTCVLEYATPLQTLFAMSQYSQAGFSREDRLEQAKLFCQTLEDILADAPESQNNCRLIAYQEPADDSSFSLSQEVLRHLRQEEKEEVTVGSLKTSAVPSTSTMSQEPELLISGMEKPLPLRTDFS

[3] = tested on: pancreatic orthotopic tumor; assay: Pancreatic orthotopic tumor model; assay type: in vivo, C57BL/6 mice
Description: For the pancreatic orthotopic tumor model, mice were anesthetized using […] (2,2,2-tribromoethanol) (Aladdin), and the pancreas was surgically exposed. Approximately 5 × 10^5 tumor cells suspended in 50 μL PBS were injected into the pancreas. The incision was then closed, and the mice were allowed to recover under close observation. On days 9, 12, and 15, the mice received intraperitoneal injections of three different concentrations of the drug. As with the subcutaneous model, the mice were euthanized on day 25, tumors were collected, weighed, and further analyzed. Additionally, at least 10 mice from each group were randomly selected to undergo the same treatments without euthanasia, and their survival times were recorded to generate survival curves.
Pancreatic orthotopic tumor models were established using mouse pancreatic tumor cell lines (Pan02-luc and KPC-luc). Mice were intraperitoneally injected with 200 µL of D-Luciferin working solution (15 mg/mL) (Yeasen) and continuously anesthetized with isoflurane. Ten minutes after injection, the intensity and distribution of luciferase luminescence were measured using the Tanon ABL-X5 in vivo imaging system. Tumor size was monitored weekly, with consistent exposure times and intensities for imaging.
Multiplex cytokine detection was performed using Luminex cytokine bead array technology provided by WayenBio, Shanghai. In the mouse tumor model, levels of multiple cytokines were simultaneously measured and normalized to tumor weight. For the quantification of specific cytokines, such as IL-6 and IFN-β, enzyme-linked immunosorbent assay (ELISA) kits from Abclonal were used. The assays were conducted according to the manufacturer's instructions.

[4] = Pharmacokinetic parameters, i.v. and p.o.; assay type: in vivo; conditions: plasma
[5] = Metabolite profiling in liver microsomes, 60 min incubation; assay type: in vitro ADME, mouse; conditions: D166 incubated 60 min; selected ion chromatographic peak areas
[6] = tested on: subcutaneous pancreatic tumor; assay: CD45.1 T cell or BMDM transfer into CD45.2 tumor-bearing mice; assay type: in vivo
Panc-1 cell line = assay: CCK8 and colony assay of Panc-1 cell line; assay type: cell-based, human; conditions: Panc-1, 10μM D166, CCK8 and colony assay
Text: Western Blot showing cGAS-STING pathway protein expression of Panc-1 cell line
(B) CCK8 of Panc-1 cell line when
(C-D) Representative image (C) and statistic (D) of […]

[7] = tested on: pancreatic tumor organoids co-cultured with T cells or macrophages; assay: Co-culture of pancreatic tumor organoids and immune cells; assay type: cell-based, human
Description: T cells and monocytes were isolated from the peripheral blood of patients using the EasySep™ Human CD8+ T Cell Isolation Kit and Human Monocyte Isolation Kit ([…]). CD8+ T cells were activated with anti-CD3 (5 μg/mL) and anti-CD28 (5 μg/mL) antibodies (BioLegend), while monocytes were stimulated with 50 ng/mL of M-CSF (BioLegend) for 6 days to induce differentiation into macrophages. […] On day 5, immune cells were harvested for flow cytometry analysis. Tumor organoids were photographed, viability was assessed, and organoids were embedded for HE and IHC staining at days 0, 5, and 10 of co-culture.
Mouse tumors were digested using the Mouse Tumor Dissociation Kit (Miltenyi Biotec) according to the manufacturer's protocol. The resulting single-cell suspension was filtered through a 70-micron mesh to ensure a homogeneous cell population. Cells were stained with fluorescently labeled antibodies for flow cytometry at 4°C on ice for 30 minutes. After washing off unbound antibodies, fluorescence was detected using a Beckman CytoFlex S flow cytometer. For co-cultured immune cells, separated T cells and macrophages were similarly stained with flow cytometry antibodies. For cytokine staining, cells were pre-stimulated with the eBioscience™ Cell Stimulation Cocktail for 4 hours. For intracellular protein staining, after surface staining, cells were fixed and permeabilized using the BD Cytofix/Cytoperm™ Fixation/Permeabilization Kit, followed by staining for intracellular proteins. Flow cytometry data were analyzed using FlowJo 10 software.

[8] = CD45.1 bone marrow-derived macrophages transferred

## [2H]C([2H])([2H])Oc1cc2cc(C(=O)CCC(=O)O)sc2cc1OC([2H])([2H])[2H] [D166]
m-STING
  Raw-lucia Fold (50 μM): 25.34 Fold
[1]
  Relative Peak Area Abundance (%) RLM: 97.7%
[2]
  Relative Peak Area Abundance (%) DLM: 98.6%
h-STING
  THP1-Dual Fold (10 μM): 60.46 Fold
[3]; higher D166 doses, ELISA
  cytokine levels in the TME, including IL-6, IFN-β, and TNF-α: elevated cytokine levels
[3]; increasing D166 concentrations, compared with DMXAA
  inhibition of tumor proliferation, weekly in vivo imaging: more potent effect than DMXAA
[3]; intraperitoneal injection at varying doses
  pancreatic tumor progression: significant dose-dependent inhibition
[4]; iv, average of three runs
  AUC(0-inf): 750 ng·h/mL
  MRT inf: 15.6 min
  clearance: 22.5 mL/min/kg
  half-life: 45 min
[4]; iv, average of three runs, read-out: Vz
  Vd: 1.45 L/kg
[4]; po, average of three runs
  AUC(0-inf): 2120 ng·h/mL
  MRT inf: 66 min
  half-life: 81 min
[4]; p.o., oral bioavailability
  bioavailability: 93.8%
[5]
  Relative Peak Area Abundance (%) MLM: 94.2%
[6]; CD45.1 T cells transferred, D166 concentration increased
  tumor progression: slowed
[6]; [8]
  expression of M1 macrophage markers (CD86 and iNOS) in CD45.1 macrophages: increased
  expression of M2 markers in CD45.1 macrophages: decreased
[6]; sorted CD45.1 cells
  IFNG, GZMB, and PDCD1 in the CD45.1 T cells: significant upregulation
Panc-1 cell line
  proliferation: without affecting proliferation
[7]; CTG assay, days 0, 5, 10 of co-culture
  size and viability of pancreatic cancer organoids: significant reduction
[7]; culture medium, ELISA
  IL-6, IFN-β, IFN-γ, and TNF-α levels: significantly increased
[7]; flow cytometry
  IFNG and GZMB release from T cells: marked increase
  mean fluorescence intensities (MFI) of CD86 and CD80 (M1 markers) in macrophages: significantly increased
  mean fluorescence intensities (MFI) of CD163 and CD206 (M2 markers) in macrophages: significantly decreased
